Key:
[1] = system: ovariectomized (OVX) cynomolgus monkeys; experiment: Tolerability in the 18 month OVX cynomolgus monkey study; assay type: in vivo; details: for Tolerability: 18 months
Procedure: (§1) One hundred purpose-bred female cynomolgus monkeys (Macaca fascicularis), 12-13 years of age with closed growth plates are used for this study conducted in compliance with GLP. Eighty animals underwent bilateral ovariectomy and monkeys assigned to the sham group (S) underwent sham surgery. They are dosed twice daily by oral gavage with vehicle (distilled water) or COMPOUND A maleate (COMPOUND A-AF) for 18 months (Table 1).
Ovariectomized (OVX) cynomolgus monkeys are treated orally for 18 months with 3, 10, or 50/30 mg/kg COMPOUND A maleate twice daily (bid).

[2] = system: ovariectomized (OVX) cynomolgus monkeys; experiment: Mineral apposition rate (MAR) at the femoral neck, OVX cynomolgus monkeys; assay type: in vivo, cynomolgus monkeys (Macaca fascicularis)
Procedure: as §1
Mineral apposition rate (MAR), an indicator of bone formation, is reduced at cancellous bone for the femoral neck by the mid and high dose (FIG. 6) consistent with the action of an inhibitor of bone turnover.

[3] = system: ovariectomized (OVX) cynomolgus monkeys; experiment: 3-point bending test of midshaft femur, OVX cynomolgus monkeys after 18 months treatment; assay type: in vivo, cynomolgus monkeys (Macaca fascicularis); details: mean ± SEM; for Max load: n = 19-20
Procedure: as §1
(§2) DXA (Dual Energy X-ray Absorptiometry) of the lumbar spine and femur is performed twice prior to and at 3 months intervals during treatment. Compression test of third lumbar vertebra and a three-point bending test for the midshaft femur are carried out according to standard procedures. In brief, the cranial and caudal ends of each vertebral body are cut off to obtain a vertebral body specimen with two parallel surfaces and a height of approximately 7 mm. Each specimen is placed between two plates and a load applied at a constant displacement rate of 6 mm/min until failure in an Instron Mechanical Testing Machine. The femur is placed on the lower supports of a three point bending fixture with the anterior side facing downward in an Instron Mechanical Testing Machine. Load is applied at a constant displacement rate of […] until failure.
(§3) All group data are first checked to ensure they meet the assumptions for parametric analysis (normality, homogeneity of variances). Data are transformed, if necessary, to meet the assumptions as closely as possible. Results using transformed data are used for interpretation. In general, data are analyzed by one-way analysis of variance (1-way ANOVA) for variables assessed only once during the treatment phase of the study. For variables assessed repeatedly during the treatment phase, a two-way (group, time) analysis of covariance (ANCOVA) with repeated measures on time is used. For each ANCOVA evaluation, average baseline data for individual animals is used as the covariate. Results are presented as Mean±SEM (standard error of mean).

[4] = system: postmenopausal women; experiment: 12-week double-blind placebo controlled phase IIA study, biochemical markers of bone resorption and formation; assay type: in vivo, human
Procedure: In a 12-week treatment, multicenter, double-blind, randomized, placebo-controlled, parallel group, a dose-ranging, safety, tolerability and efficacy trial with Compound A in postmenopausal women, with 3 weeks follow-up is conducted.
The primary objectives of the study are to assess the effect of Compound A on biochemical markers of bone resorption and bone formation, and to evaluate its safety and tolerability profile. Secondary objectives are to assess the changes in biochemical markers after the end of treatment, and to study the pharmacokinetics of Compound A and its metabolite during and after 12 weeks of treatment.
The population of subjects is normal healthy postmenopausal women. The reason for not investigating osteopenic women is the following: The efficacy endpoints of the study are biochemical markers of bone turnover. These variables are not directly correlated with BMD in man. […] They are at least 5 years postinenopause, mainly because biomarkers are expected to fluctuate less in these women than in the perimenopause. […]
Four doses are tested, 5, 10, 25, and 50 mg od. The duration of the study is 12 weeks, with a 3-week follow-up, 12 weeks treatment allows to assess the timecourse of biomarkers of both, bone resorption and bone formation and to ascertain that a steady-state in biomarkers is achieved.

[5] = system: ovariectomized (OVX) cynomolgus monkeys; experiment: Compression test of third lumbar vertebra (LV3), OVX cynomolgus monkeys after 18 months treatment; assay type: in vivo, cynomolgus monkeys (Macaca fascicularis)
Procedure: as §1
DXA (Dual Energy X-ray Absorptiometry) of the lumbar spine and femur is performed twice prior to and at 3 months intervals during treatment. Compression test of third lumbar vertebra and a three-point bending test for the midshaft femur are carried out according to standard procedures. In brief, the cranial and caudal ends of each vertebral body are cut off to obtain a vertebral body specimen with two parallel surfaces and a height of approximately 7 mm. […]
All group data are first checked to ensure they meet the assumptions for parametric analysis (normality, homogeneity of variances). […] In general, data are analyzed by one-way analysis of variance (1-way ANOVA) for variables assessed only once during the treatment phase of the study. For variables assessed repeatedly during the treatment phase, a two-way (group, time) analysis of covariance (ANCOVA) with repeated measures on time is used. […]

[6] = system: ovariectomized (OVX) cynomolgus monkeys; experiment: DXA bone mineral density of lumbar spine and femur in OVX cynomolgus monkeys, 18 months oral treatment; assay type: in vivo, cynomolgus monkeys (Macaca fascicularis)
Procedure: The present, 18 month long study is performed in order to assess the effect of COMPOUND A on bone in a non-human primate model of osteoporosis.
as §1, §2, §3

[7] = High group: 2 × 50 mg/kg/day 1st month, 2 × 30 months 2-18, oral
[8] = High group: 2 × 50 mg/kg/day 1st month, 2 × 30 months 2-18, oral, * p < 0.05 versus OVX
[9] = Low group: 2 × 3 mg/kg/day oral, 18 months
[10] = Low group: 2 × 3 mg/kg/day oral, 18 months, * p < 0.05 versus OVX
[11] = Mid group: 2 × 10 mg/kg/day oral, 18 months

Question: How did the “Food intake and body weight” value ([1]; 50 mg/kg bid oral, first month (then reduced to 30 mg/kg bid)) turn out when `CCCN1CCN(c2ccc(C(=O)NC3(C(=O)NCC#N)CCCCC3)cc2)CC1` [Compound A, N-[1-(cyanomethyl-carbamoyl)-cyclohexyl]-4-(4-propyl-piperazin-1-yl)-benzamide] was run?
Answer: decreases in food intake and body weight

Question: What about the Tolerability ([1]; 3 and 10 mg/kg bid oral) of the same compound?
Answer: well tolerated

Question: What about the Body weight gain ([1]; High group after reduction to 30 mg/kg bid, until end of study) of the same compound?
Answer: remains significantly lower until the end of the study

Question: And the Tolerability ([1]; OVX cynomolgus monkeys, oral twice daily, overall)?
Answer: generally well tolerated

Question: What about the “Mineral apposition rate (MAR) at the periosteal side of the femoral neck” value ([2]; all doses, even the low dose is active) of the same compound?
Answer: highly significantly increased

Question: What about the “Mineral apposition rate (MAR) at cancellous bone for the femoral neck” value ([2]; mid and high dose) of the same compound?
Answer: reduced

Question: And the Moment of inertia [3, 7]?
Answer: 322 ± 20 mm^4

Question: And the Ultimate strength [3, 7]?
Answer: 196 ± 4 N/mm^2

Question: What about the Energy [3, 8] of the same compound?
Answer: 1276 ± 87 * mJ

Question: What about the Toughness [3, 8] of the same compound?
Answer: 3.6 ± 0.2 MJ/m³

Question: What about the Max load [3, 7] of the same compound?
Answer: 973 ± 45 N

Question: And the Moment of inertia [3, 9]?
Answer: 322 ± 20 mm^4

Question: And the Ultimate strength [3, 9]?
Answer: 195 ± 5 N/mm^2

Question: And the Energy [3, 10]?
Answer: 1305 ± 91 * mJ

Question: What about the Toughness [3, 10] of the same compound?
Answer: 3.7 ± 0.2 MJ/m³

Question: And the Max load [3, 9]?
Answer: 972 ± 38 N

Question: And the Energy [3, 11]?
Answer: 1126 ± 88 mJ

Question: And the Moment of inertia [3, 11]?
Answer: 290 ± 16 mm^4

Question: And the Toughness [3, 11]?
Answer: 3.3 ± 0.2 MJ/m³

Question: And the Ultimate strength [3, 11]?
Answer: 193 ± 3 N/mm^2

Question: And the Max load [3, 11]?
Answer: 894 ± 39 N

Question: What about the “Bone resorption marker serum CTX versus placebo” value ([4]; all doses except 5 mg (10, 25, 50 mg od), all time points, p<0.001) of the same compound?
Answer: significant difference

Question: What about the “Action on bone resorption marker (sCTX1)” value ([4]; postmenopausal women, 5, 10, 25, 50 mg od, 12 weeks) of the same compound?
Answer: potent and rapid action

Question: And the “Bone formation markers (serum osteocalcin, BSAP) over time” value ([4]; postmenopausal women, 12 weeks)?
Answer: the decrease of suppression is less than that seen with the bone resorption markers

Question: And the “Other resorption biomarkers (serum NTX, urinary NTX)” value ([4]; postmenopausal women, 12 weeks)?
Answer: support results seen with serum CTX

Question: What about the “Maximum load in LV3 compression test versus OVX” value ([5]; all treatment groups (L, M, H), 18 months) of the same compound?
Answer: increase maximum load

Question: What about the “Maximum load in LV3 compression test, group H” value ([5]; group H, 50/30 mg/kg bid, p<0.01 versus OVX, p<0.05 versus Sham) of the same compound?
Answer: increased above the group S level

Question: What about the “Whole femur BMD (DXA) compared to group O (OVX)” value ([6]; all three dose levels, over the whole 18 months period) of the same compound?
Answer: significant increase

Question: What about the “Lumbar spine LV1-4 BMD (DXA), effect versus OVX” value ([6]; all three doses (3, 10, 50/30 mg/kg bid), 18 months, p<0.05 versus OVX) of the same compound?
Answer: inhibit the effect of OVX

Question: And the “Lumbar spine LV1-4 BMD (DXA), efficacy of group H relative to other doses” value ([6]; group H, 50/30 mg/kg bid)?
Answer: tended to be less efficacious

Question: What about the “Anterior-posterior diameter of the femur midshaft” value ([6]; groups L and H versus groups S and O) of the same compound?
Answer: tends to be larger

Question: And the “Whole femur BMD (DXA) compared to sham” value ([6]; treated groups, significant at month 9 for groups L and H and at month 18 for group M)?
Answer: even above sham for most time points
